From article PMC7926793, “Synthesis and Biological Evaluation of 1-(Diarylmethyl)-1H-1,2,4-triazoles and 1-(Diarylmethyl)-1H-imidazoles as a Novel Class of Anti-Mitotic Agent for Activity in Breast Cancer” (Pharmaceuticals, 2021) come the findings set out here.

One experiment deals with SK-MEL-28. The experiment can be described thus: NCI 60 cell line screen (Melanoma). In kind it is cell-based, human. The following applies: SK-MEL-28, single dose 10 µM.
Another experiment deals with OVCAR-8. The experiment can be described thus: NCI 60 cell line screen (Ovarian Cancer). In kind it is cell-based, human. The following applies: for Growth percentage: OVCAR-8, single dose 10 µM.
The subject of the next experiment is MCF-7. The experiment can be described thus: NCI 60 cell line screen (Breast Cancer). The following applies: for Growth percentage: MCF-7, single dose 10 µM. In kind it is cell-based, human.
A further experiment concerns SF-268. The experiment can be described thus: NCI 60 cell line screen (CNS Cancer). In kind it is cell-based, human. The following applies: for Growth percentage: SF-268, single dose 10 µM.
A further experiment relates to SK-OV-3. The experiment can be described thus: NCI 60 cell line screen (Ovarian Cancer). In kind it is cell-based, human. The following applies: for Growth percentage: SK-OV-3, single dose 10 µM.
The subject of a further experiment is SK-MEL-5. The experiment can be described thus: NCI 60 cell line screen (Melanoma). In kind it is cell-based, human. Particulars: for Growth percentage: SK-MEL-5, single dose 10 µM.
A further experiment deals with ACHN. Put plainly: NCI 60 cell line screen (Renal Cancer). In kind it is cell-based, human. Particulars: for Growth percentage: single dose 10 µM.
For a further experiment, the system named is UACC-62. Put plainly: NCI 60 cell line screen (Melanoma). In kind it is cell-based, human. Particulars: for Growth percentage: UACC-62, single dose 10 µM.
For the next experiment, the system named is CCRF-CEM. Put plainly: NCI 60 cell line screen (Leukemia). In kind it is cell-based, human. Particulars: for Growth percentage: single dose 10 µM.
Another experiment concerns HL-60 (TB). The experiment can be described thus: NCI 60 cell line screen (Leukemia). In kind it is cell-based, human. The following applies: for Growth percentage: single dose 10 µM.
The target in the next experiment is T1, CYP19 (aromatase) (Homo sapiens, UniProt P11511).
T1 sequence (P11511 1-503): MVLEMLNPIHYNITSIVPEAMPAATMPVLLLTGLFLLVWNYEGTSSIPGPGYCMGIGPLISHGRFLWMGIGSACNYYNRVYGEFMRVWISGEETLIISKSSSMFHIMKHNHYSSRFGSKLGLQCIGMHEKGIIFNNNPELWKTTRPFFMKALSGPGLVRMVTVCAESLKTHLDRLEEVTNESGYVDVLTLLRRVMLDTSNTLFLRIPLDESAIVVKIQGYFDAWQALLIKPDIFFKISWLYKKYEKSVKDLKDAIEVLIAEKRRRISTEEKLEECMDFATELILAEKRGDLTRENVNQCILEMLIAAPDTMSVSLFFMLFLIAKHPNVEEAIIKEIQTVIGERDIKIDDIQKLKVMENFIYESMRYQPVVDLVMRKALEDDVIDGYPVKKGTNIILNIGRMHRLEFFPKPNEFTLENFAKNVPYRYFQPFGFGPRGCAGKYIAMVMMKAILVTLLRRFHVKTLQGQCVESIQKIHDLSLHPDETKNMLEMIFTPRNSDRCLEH
Put plainly: cytochrome P450 assay (DBF fluorescence). Particulars: for IC50: IC50 CYP19; for inhibition at 20 µg/mL: read-out: % Inhibition at 20 µg/mL CYP19.

The next experiment relates to IGROV1. Put plainly: NCI 60 cell line screen (Ovarian Cancer). In kind it is cell-based, human. The following applies: for Growth percentage: IGROV1, single dose 10 µM.
Another experiment has as its system HS 578T. Put plainly: NCI 60 cell line screen (Breast Cancer). In kind it is cell-based, human. The following applies: for Growth percentage: single dose 10 µM.
For another experiment, the system named is MOLT-4. Put plainly: NCI 60 cell line screen (Leukemia). In kind it is cell-based, human. Particulars: for Growth percentage: MOLT-4, single dose 10 µM.
For experiment [1], the system named is MDA-MB-231 human breast cancer cells. The experiment can be described thus: alamarBlue cell viability assay. In kind it is cell-based. Particulars: read-out: Antiproliferative Activity MDA-MB-231 Cells IC50. On the procedure:
(§1) The human breast carcinoma cell line MCF-7 was purchased from the European Collection of Animal Cell Cultures (ECACC) and cultured in Eagles minimum essential medium with 10% foetal bovine serum, 2 mM L-glutamine, and 100 μg/mL penicillin/streptomycin. The medium was supplemented with 1% non-essential amino acids. The human breast carcinoma cell line MDA-MB-231 was purchased from the ECACC. MDA-MB-231 cells were maintained in Dulbecco’s modified Eagle’s medium (DMEM) supplemented with 10% (v/v) foetal bovine serum, 2 mM L-glutamine, and 100 μg/mL penicillin/streptomycin (complete medium). HL-60 cells were derived from a patient with acute myeloid leukaemia and were obtained from the ECACC (Salisbury, UK). Cells were cultured in RPMI-1640 Glutamax medium supplemented with 10% FCS media and 100 μg/mL penicillin/streptomycin. MCF-10A cells were obtained as a kind gift from Dr Susan McDonnell, School of Chemical and Bioprocess Engineering, University College Dublin and were cultured in Dulbecco’s Modified Eagle Medium: Nutrient Mixture F-12 (DMEM/F12; Gibco) supplemented with 5% horse serum (Invitrogen), 20 ng mL^−1 epidermal growth factor (Merck Millipore), 0.5 μg mL^−1 hydrocortisone (Sigma,-Aldrich, Arklow, Co. Wicklow, Ireland), 100 ng mL^−1 cholera toxin (Sigma, Aldrich, Arklow, Co. Wicklow, Ireland), 10 μg mL^−1 insulin (Sigma, Aldrich, Arklow, Co. Wicklow, Ireland), and penicillin/streptomycin 5000 U mL^−1 (1%)(Gibco, Biosciences, 3 Charlemont Terrace, Crofton Road, Dun Laoghaire, Co Dublin, A96 K7H7, Ireland). Cells were maintained at 37 °C in 5% CO2 in a humidified incubator. All cells were sub-cultured 3 times/week by trypsinisation using TrypLE Express (1×).
(§2) Cells were seeded at a density of 2.5 × 10^4 cells/well (MCF-7, MDA-MB-231, MCF-10A cells) and 1 × 10^4 cells/well (HL-60) in 96-well plates (200 μL per well). After 24 h, cells were then treated with either medium alone, vehicle control (1% ethanol (v/v)) or with serial dilutions of CA-4 (4a), phenstatin (7a) or selected compounds (0.001–100 μM) in triplicate. Cell proliferation for MCF-7, MDA-MB-231, and MCF-10A cells was analysed using the alamarBlue assay (Invitrogen Corp.) according to the manufacturer’s instructions. After 67–69 h, alamarBlue (10% (v/v)) was added to each well, and plates were incubated for 3–5 h at 37 °C in the dark. Fluorescence was read using a 96-well fluorimeter with excitation at 530 nm and emission at 590 nm. Results were expressed as percentage viability relative to vehicle control (100%).

Experiment [2] concerns MCF-7 human breast cancer cells. Put plainly: alamarBlue cell viability assay. In kind it is cell-based. The following applies: Homo sapiens, 72 h; for viability at 1 µM: MCF7, read-out: cell viability (viable cells). Here is the method:
as §1, §2
(Resazurin is reduced to fluorescent resorufin, in cell work by metabolically active cells.)

Another experiment relates to LOX IMV1. The experiment can be described thus: NCI 60 cell line screen (Melanoma). Particulars: for Growth percentage: LOX IMV1, single dose 10 µM. In kind it is cell-based, human.
The test system of the next experiment is SR. The experiment can be described thus: NCI 60 cell line screen (Leukemia). The following applies: single dose 10 µM. In kind it is cell-based, human.

Several values for one entry are separate records, joined by “and”; a condition that tells them apart may be missing. Equal entries are not always repeated. Where two headings read alike, the source gives them in different places.

What is called GI50 is the concentration at which growth is held to half of that of the control. Lower therefore signals more potent growth inhibition. For orientation: IC50 means the point on the concentration scale where inhibition reaches its midpoint. A word on the viability: it is a read-out of living cells in per cent, often relative to untreated cells. Consider `COc1ccc(C(c2cc(OC)c(OC)c(OC)c2)n2cncn2)cc1O` (stereo not shown) [19e, 5-((1H-1,2,4-Triazol-1-yl)(3,4,5-Trimethoxyphenyl)methyl)-2-Methoxyphenol], for which the Growth percentage was determined as 57.04% in the experiment on SK-MEL-28; 13.43% with OVCAR-8; 17.87% with MCF-7; 48.75% with SF-268; 20.25% with SK-OV-3; 14.60% in the experiment on SK-MEL-5. Moreover, the Growth percentage with ACHN is reported as 52.36%; in the experiment with UACC-62, 32.04%; with CCRF-CEM, 9.32%; with HL-60 (TB) it was -32.53%; in the experiment with IGROV1, 49.22%; in the experiment on HS 578T, 31.34%. In addition, the figures for the Growth percentage in the experiment on MOLT-4 and with LOX IMV1 were 16.7% and 43.48%, respectively. The concentration for 50% growth inhibition (GI50) is 1140 nM in the experiment on OVCAR-8 (Homo sapiens, OVCAR-8, NCI 5 dose assay); 347 nM in the experiment on MCF-7 (Homo sapiens, MCF7, MCF-7, NCI 5 dose assay); 469 nM in the experiment with SF-268 (Homo sapiens, SF-268, NCI 5 dose assay); 402 nM in the experiment with SK-OV-3 (Homo sapiens, SK-OV-3, NCI 5 dose assay); 440 nM in the experiment with SK-MEL-5 (Homo sapiens, SK-MEL-5, NCI 5 dose assay); 653 nM with ACHN (Homo sapiens, NCI 5 dose assay). In addition, the GI50 turned out to be 550 nM in the experiment with UACC-62 (Homo sapiens, UACC-62, NCI 5 dose assay); 402 nM with CCRF-CEM (Homo sapiens, NCI 5 dose assay); 261 nM in the experiment on HL-60 (TB) (Homo sapiens, NCI 5 dose assay); 959 nM with IGROV1 (Homo sapiens, IGROV-1, IGROV1, NCI 5 dose assay); 548 nM with HS 578T (Homo sapiens, NCI 5 dose assay); 510 nM with MOLT-4 (Homo sapiens, MOLT-4, NCI 5 dose assay). Moreover, in the experiment on LOX IMV1 (Homo sapiens, LOX IMV1, NCI 5 dose assay), growth was halved (GI50) at 523 nM. Further, the IC50 at CYP19 (aromatase) is 29000 nM and 29600 nM; in experiment [1] (72 h), 978 ± 130 nM; in [1] (Homo sapiens, MDA-MB-231, 72 h), 980 nM. Moreover, the inhibition at 20 µg/mL on CYP19 (aromatase) turned out to be 85.3%. Also, on CYP19 (aromatase) (read-out: inhibition of CYP19), the inhibition at 20 µM was greater than 85%. Besides, the viability at 1 µM in [2] was determined as 29%.
In the case of `COc1ccc(C(c2cc(OC)c(OC)c(OC)c2)N2CCCC2)cc1` (stereo not shown) [25g], the Growth percentage was determined as 80.08% in the experiment with SK-MEL-28; 95.58% in the experiment with OVCAR-8; 23.87% with SR; 64.09% in the experiment with MCF-7; 84.26% with SF-268; 77.46% in the experiment on SK-OV-3. Further, the Growth percentage with SK-MEL-5 was 65.20%; in the experiment with ACHN, 103.18%; with UACC-62 it was 57.35%; with CCRF-CEM, 71.21%; with HL-60 (TB) it was 35.51%; in the experiment with IGROV1, 82.87%. Besides, the Growth percentage in the experiment on HS 578T was 80.45%; with MOLT-4 it was 78.09%; with LOX IMV1, 72.96%. In [2], the viability at 1 µM is 82%.
Regarding `COc1ccc(C(c2cc(OC)c(OC)c(OC)c2)N2CCCCC2)cc1` (stereo not shown) [26b, 1-((4-Methoxyphenyl)(3,4,5-Trimethoxyphenyl)Methyl)Piperidine], the Growth percentage in the experiment with SK-MEL-28 came to 47.22%; in the experiment with OVCAR-8, 50.11%; with SR it was 18.46%; in the experiment with MCF-7, 23.57%; in the experiment on SF-268, 47.22%; in the experiment with SK-OV-3 it was 16.68%. Further, the Growth percentage was 29.49% in the experiment on SK-MEL-5; 50.89% in the experiment with ACHN; 18.17% in the experiment on UACC-62; 29.91% in the experiment with CCRF-CEM; 4.36% with HL-60 (TB); 47.13% with IGROV1. The Growth percentage was 16.61% and 16.6% in the experiment with HS 578T; 31.54% in the experiment with MOLT-4; 36.34% in the experiment on LOX IMV1. For the same compound, the viability at 1 µM in [2] was 78%.
Take `COc1ccc(C(c2cc(OC)c(OC)c(OC)c2)N2CCN(Cc3ccccc3)CC2)cc1` (stereo not shown) [27d]: the Growth percentage in the experiment on SK-MEL-28 is 78.33%; with OVCAR-8, 92.58%; in the experiment on SR, 16.10%; in the experiment on MCF-7, 47.67%; in the experiment with SF-268 it was 86.44%; with SK-OV-3 it was 66.24%. The Growth percentage in the experiment with SK-MEL-5 turned out to be 52.63%; in the experiment with ACHN, 92.77%; with UACC-62, 49.44%; in the experiment on CCRF-CEM, 68.76%; in the experiment on HL-60 (TB) it was 22.98%; in the experiment on IGROV1, 62.96%. Besides, the Growth percentage in the experiment with HS 578T was found to be 59.07%; in the experiment with MOLT-4 it was 53.48%; in the experiment with LOX IMV1 it was 67.02%.
Consider `COc1ccc(C(c2cc(OC)c(OC)c(OC)c2)n2nccn2)cc1O` (stereo not shown) [compound 24], for which the IC50 at CYP19 (aromatase) is greater than 53800 nM; in [1] (Homo sapiens, MDA-MB-231, 72 h), 74 ± 30 nM; in experiment [2] (MCF7, 72 h, alamarBlue, read-out: Antiproliferative Activity MCF-7 Cells IC50) it was 52 ± 40 nM. For the same compound, the inhibition at 20 µg/mL on CYP19 (aromatase) amounted to 0.01%. For the same compound, the viability at 1 µM in experiment [2] was determined as 27%.
